The results in this text go back to BindingDB's records for doi:10.1021/jm00103a008 (National Institute of Diabetes and Digestive and Kidney …, 1993).

This experiment in a line: Compound was evaluated for its ability to displace [3H](+)-pentazocine from sigma receptor in Guinea pig brain.

Broadly, the Ki is a measure of affinity in units of concentration, obtained from inhibition or displacement. Lower therefore signals tighter binding.

For `c1ccc([C@]2(N3CCCCC3)CC[C@H]3C[C@H]32)cc1`, the Ki came to 4.45 µM.

`c1ccc([C@]2(N3CCCCC3)CC[C@@H]3C[C@@H]32)cc1` registered a Ki of 7.28 µM.

The compound `c1ccc([C@@]2(N3CCCCC3)CC[C@H]3C[C@H]32)cc1` yielded an inhibition constant (Ki) of 1.13 µM.
